Reference: US4250176A, “Piperazine derivatives” (priority 1979, dated 1981)
Values after ≈ are worked out from the molar mass of the structure shown. Where a name gives a salt, the structure may show the parent alone. Read-outs that look alike come from different tables or passages of the source.

How the values were obtained:
[1] = test system: Guinea-pig ileum strips, histamine-induced contraction; experiment: Anti-histamine activity in "vitro": histamine-induced spasms of guinea-pig ileum strips; assay type: cell-based; settings: for IC50: Cavia porcellus, 5 min
Experimental: The histamine--(0.5 mg/liter) induced spasms are recorded Kymographically with an isotonic lever giving a 5-fold magnification.

[2] = test system: Guinea pigs sensitized to ovalbumin (anaphylactic shock); experiment: Anaphylaxis in guinea pigs: protection against death after ovalbumin challenge (survival); assay type: in vivo, guinea pig; settings: for ED50: Cavia porcellus, read-out: Anaphylaxis in guinea pigs oral effective dose in mg/kg: Survival
Outline: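 Guinea pigs (400–500 g) sensitized by subplantar ovalbumin antiserum, dosed orally 24 h later. ED50 is the oral dose protecting 50% of animals from death.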

[3] = test system: histamine paw oedema in guinea pigs; experiment: Histamine paw oedema in guinea pigs; assay type: in vivo, guinea pig; settings: for minimal effective dose: Cavia porcellus, read-out: Anaphylaxis in guinea pigs oral effective dose in mg/kg: Histamine oedema
Outline: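 Guinea pigs of 400–500 g were dosed orally with compound or saline 24 h after subplantar ovalbumin antiserum sensitisation in the left hind paw. Two hours after dosing, histamine 50 μg was injected subplantar into the right hind paw to induce oedema.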

[4] = Table I-b, histamine 0.5 mg/liter, 5 minutes incubation, concentration giving significant inhibition (50%) of the contraction, read-out: Histamine in "vitro" (ileum) effective conc.
[5] = Table I-b, estimated ED50, oral, protection against death after i.v. 0.6 mg ovalbumin
[6] = Table I-b, oral dose giving paw reaction below 10 units 10 minutes after 50 μg histamine s.p., 2 hours after dosing
[7] = Table I-e, histamine 0.5 mg/liter, 5 minutes incubation, concentration giving significant inhibition (50%) of the contraction, read-out: Histamine in "vitro" (ileum) effective dose
[8] = Table I-e, estimated ED50, oral, protection against death after i.v. 0.6 mg ovalbumin
[9] = Table I-e, oral dose giving paw reaction below 10 units 10 minutes after 50 μg histamine s.p., 2 hours after dosing

Structure (SMILES)	IC50 [1, 4]	ED50 [2, 5]	minimal effective dose [3, 6]	further results
Clc1ccc(C(c2ccccc2)N2CCN(CCCn3cnc4ccccc43)CC2)cc1 (stereo not drawn) [I-b: M=H, R1=H, (CH2)3, R6=4-Cl, R7=H, 1-[3-{4-[(4-chlorophenyl)phenylmethyl]-1-piperazinyl}propyl]-1H-benzimidazole]	0.01 mg/L (≈ 0.0225 µM)	0.08 mg/kg	0.31 mg/kg	–
Fc1ccc(C(c2ccc(F)cc2)N2CCN(CCCn3cnc4ccccc43)CC2)cc1.O [I-b: M=H, R1=H, (CH2)3, R6=4-F, R7=4-F, 1-[3-{4-[bis(4-fluorophenyl)methyl]-1-piperazinyl}propyl]-1H-benzimidazole hydrate]	0.02 mg/L	0.16 mg/kg	0.31 mg/kg	–
Fc1ccc(C(c2ccccc2)N2CCN(CCCn3cnc4ccccc43)CC2)cc1 (stereo not drawn) [I-b: M=H, R1=H, (CH2)3, R6=4-F, R7=H]	0.005 mg/L (≈ 0.0117 µM)	0.31 mg/kg	0.31 mg/kg	–
c1ccc(C(c2ccccc2)N2CCN(CCCn3cnc4ccccc43)CC2)cc1 [I-b: M=H, R1=H, (CH2)3, R6=H, R7=H]	0.0025 mg/L (≈ 0.00609 µM)	0.08 mg/kg	0.16 mg/kg	–
CC(C)O.Cl.Cl.Cl.Cl.Cl.Cl.Clc1cccc(C(c2ccccc2)N2CCN(CCCn3cnc4ccccc43)CC2)c1.Clc1cccc(C(c2ccccc2)N2CCN(CCCn3cnc4ccccc43)CC2)c1.O.O (stereo not drawn) [I-b: M=H, R1=H, (CH2)4, R6=3-Cl, R7=H, 1-[3-{4-[(3-chlorophenyl)phenylmethyl]-1-piperazinyl}propyl]-1H-benzimidazole trihydrochloride.hydrate.hemi-2-propanolate]	–	–	–	Histamine in "vitro" (ileum) effective conc. ([1]; Table I-b, histamine 0.5 mg/liter, 5 minutes incubation, concentration giving significant inhibition (50%) of the contraction): 0.01 mg/L; Anaphylaxis in guinea pigs oral effective dose in mg/kg: Survival [2, 5]: 1.25 mg/kg; Anaphylaxis in guinea pigs oral effective dose in mg/kg: Histamine oedema [3, 6]: 1.25 mg/kg
Fc1ccc(C(c2ccc(F)cc2)N2CCN(CCCCn3cnc4ccccc43)CC2)cc1 [I-b: M=H, R1=H, (CH2)4, R6=4-F, R7=4-F, 1-[4-{4-[bis(4-fluorophenyl)methyl]-1-piperazinyl}butyl]-1H-benzimidazole]	0.005 mg/L (≈ 0.0109 µM)	0.31 mg/kg	0.31 mg/kg	–
Fc1ccc(C(c2ccccc2)N2CCN(CCCCn3cnc4ccccc43)CC2)cc1 (stereo not drawn) [I-b: M=H, R1=H, (CH2)4, R6=4-F, R7=H, 1-[4-{4-[(4-fluorophenyl)phenylmethyl]-1-piperazinyl}butyl]-1H-benzimidazole]	0.005 mg/L (≈ 0.0113 µM)	0.08 mg/kg	0.16 mg/kg	–
c1ccc(C(c2ccccc2)N2CCN(CCCCn3cnc4ccccc43)CC2)cc1 [I-b: M=H, R1=H, (CH2)4, R6=H, R7=H, 1-[4-[4-(diphenylmethyl)-1-piperazinyl]butyl}-1H-benzimidazole]	0.0025 mg/L (≈ 0.00589 µM)	0.16 mg/kg	0.16 mg/kg	–
Sc1nc2ccccc2n1CCCN1CCN(C(c2ccccc2)c2ccccc2)CC1 [I-b: M=HS, R1=H, (CH2)3, R6=H, R7=H, 1-{3-[4-(diphenylmethyl)-1-piperazinyl]propyl}-1H-benzimidazole-2-thiol]	0.01 mg/L (≈ 0.0226 µM)	0.63 mg/kg	1.25 mg/kg	–
Cl.Cl.O=c1oc2ccccc2n1CCCN1CCN(C(c2ccccc2)c2ccccc2)CC1 [I-c: Y=O, 3-{3-[4-(diphenylmethyl)-1-piperazinyl]propyl}-2(3H)benzoxazolone dihydrochloride]	–	–	–	IC50 ([1]; read-out: Histamine in "vitro" (ileum) effective conc. in mg/l): 0.01 mg/L; ED50 ([2]; po): 0.63 mg/kg; minimal effective dose ([3]; po, 2 h): 2.5 mg/kg
O=c1sc2ccccc2n1CCCN1CCN(C(c2ccccc2)c2ccccc2)CC1 [I-c: Y=S, 3-{3-[4-(diphenylmethyl)-1-piperazinyl]propyl}-2(3H)-benzothiazolone dihydrochloride.hemihydrate]	–	–	–	IC50 ([1]; Table I-c, histamine 0.5 mg/liter, 5 minutes incubation, concentration giving significant inhibition (50%) of the contraction, read-out: Histamine in "vitro" (ileum) effective conc.): 0.01 mg/L; ED50 ([2]; Table I-c, estimated ED50, oral, protection against death after i.v. 0.6 mg ovalbumin): 1.25 mg/kg; minimal effective dose ([3]; Table I-c, oral dose giving paw reaction below 10 units 10 minutes after 50 μg histamine s.p., 2 hours after dosing): 1.25 mg/kg
O=c1[nH]c2ccccc2n1CCCN1CCN(C(c2ccc(Cl)cc2)c2cccnc2)CC1 (stereo not drawn) [I-e: Ar1=4-Cl-C6H4, Ar2=3-pyridinyl, 1-[3-{4-[(4-chlorophenyl)(3-pyridinyl)methyl]-1-piperazinyl}propyl]-1,3-dihydro-2H-benzimidazol-2-one]	–	–	–	IC50 [1, 7]: 0.08 mg/L (≈ 0.173 µM); ED50 [2, 8]: 1.25 mg/kg; minimal effective dose [3, 9]: 2.5 mg/kg
O=c1[nH]c2ccccc2n1CCCN1CCN(C(c2ccc(F)cc2)c2cccnc2)CC1 (stereo not drawn) [I-e: Ar1=4-FC6H4, Ar2=3-pyridinyl, 1-[3-{4-[(4-fluorophenyl)(3-pyridinyl)methyl]-1-piperazinyl}propyl]-1,3-dihydro-2H-benzimidazol-2-one]	–	–	–	IC50 [1, 7]: 0.08 mg/L (≈ 0.18 µM); ED50 [2, 8]: < 2.5 mg/kg; minimal effective dose [3, 9]: < 2.5 mg/kg
CCOC(=O)CCn1c(=O)n(CCCN2CCN(C(c3ccccc3)c3ccccc3)CC2)c2ccccc21 [ethyl 3-{3-[4-(diphenylmethyl)-1-piperazinyl]propyl}-2,3-dihydro-2-oxo-1H-benzimidazole-1-propanoate dihydrochloride. dihydrate]	–	–	–	IC50 ([1]; Table I-a, histamine 0.5 mg/liter, 5 minutes incubation, concentration giving significant inhibition (50%) of the contraction, read-out: Histamine in "vitro" (ileum) effective conc.): 0.005 mg/L; ED50 ([2]; Table I-a, estimated ED50, oral, protection against death after i.v. 0.6 mg ovalbumin): 0.63 mg/kg; minimal effective dose ([3]; Table I-a, oral dose giving paw reaction below 10 units 10 minutes after 50 μg histamine s.p., 2 hours after dosing): 0.63 mg/kg
COC(=O)Nc1nc2ccccc2n1CCCN1CCN(C(c2ccccc2)c2ccccc2)CC1 [methyl [1-{3-[4-(diphenylmethyl)-1-piperazinyl]propyl}-1H-benzimidazol-2-yl]carbamate]	≤ 0.16 mg/L	2.5 mg/kg	2.5 mg/kg	–
